Measured values as given in patent US10973801B2, “Capsid assembly modulator dosing regimen” (Janssen Sciences Ireland Unlimited Company, priority 2018, dated 2021).
“And” between values parts separate entries of the source, which are not always exact repeats. Equal values may be shown once. “Also recorded” adds a separate entry of the source. Read-outs that look alike come from different tables or passages of the source. Marks after values point to notes of the source that are not given here.

Tests used:
[1] = Part 1: tolerability of Compound A in healthy subjects (sessions 1-7); type: in vivo, human; settings: single doses up to 600 mg, multiple doses 150 mg for two days then 100 mg once a day for 10 days
[2] = Adverse events over 28-day treatment in treatment naïve chronic hepatitis B patients; type: in vivo, human; settings: for Amylase Increased (most common AEs) / At least one AE (on-treatment, 28 days) / Headache (most common AEs) / Worst Grade 1 AEs / Worst Grade 2 AEs / Worst Grade 3 AEs: n = 8
Source text: In part 2 of this study (FIG. 1, sessions 8-9), the objective was to evaluate the safety, PK, and antiviral activity of Compound A in treatment naïve, chronic hepatitis B patients over a 28-day treatment period. The patient criteria were: • HBeAg-positive or negative • Plasma HBV DNA>2.0 log 10 IU/mL • ALT/AST<2.5×ULN • METAVIR stage<F3. […] Although no patients had Grade 3 or 4 AEs on treatment, one patient had Grade 1 & 2 ALT and Grade 1 AST elevations on treatment that rose to Grade 3 & 4 ALT and Grade 3 AST elevations in follow up.

HBV DNA = test: Plasma HBV DNA in treatment naïve chronic hepatitis B patients; type: in vivo, hepatitis B virus; settings: for HBV DNA Day 29 Mean Change from Baseline: N 8; for mean reduction in plasma HBV DNA levels from baseline: after 28 days
Source text: Serum HBV DNA quantitation can be performed according to methods known in the art, for example, using the polymerase chain reaction (PCR)-based assay COBAS® TAQMAN® HBV Test v2.0 (Roche Diagnostics), which has been validated to quantify HBV DNA from serum samples for diverse HBV genotypes (A-H) including pre-core mutant HBV strains, with a reported lower limit of detection of 35 IU/mL and a linear dynamic range of quantitation of 1.7×10^2 to 8.5×10^8 IU/mL IU/mL, using the WHO pooled serum reference standard for quantitation.
In part 2 of this study (FIG. 1, sessions 8-9), the objective was to evaluate the safety, PK, and antiviral activity of Compound A in treatment naïve, chronic hepatitis B patients over a 28-day treatment period. The patient criteria were: • HBeAg-positive or negative • Plasma HBV DNA>2.0 log 10 IU/mL • ALT/AST<2.5×ULN • METAVIR stage<F3. 1.1 Patient Baseline Characteristics
HBV DNA was assessed for each patient weekly during this study (see FIG. 3). A mean reduction in plasma HBV DNA levels of 2.16 (±0.49 SD) log10 IU/mL (25 mg Compound A) and 2.89 (±0.48 SD) log10 IU/mL (75 mg Compound A) from baseline was observed after 28 days. Three patients dosed with 75 mg QD achieved HBV DNA below the level of quantification of the HBV DNA assay while none in the 25 mg Compound A group achieved this. A more pronounced and consistent decline in HBV DNA was observed across patients in the 75 mg group compared with the 25 mg group.

HBV RNA = HBV RNA in treatment naïve chronic hepatitis B patients; type: in vivo, hepatitis B virus; settings: N 8
Description: In part 2 of this study (FIG. 1, sessions 8-9), the objective was to evaluate the safety, PK, and antiviral activity of Compound A in treatment naïve, chronic hepatitis B patients over a 28-day treatment period. The patient criteria were: • HBeAg-positive or negative • Plasma HBV DNA>2.0 log 10 IU/mL • ALT/AST<2.5×ULN • METAVIR stage<F3. 1.1 Patient Baseline Characteristics HBV DNA was assessed for each patient weekly during this study (see FIG. 3). A mean reduction in plasma HBV DNA levels of 2.16 (±0.49 SD) log10 IU/mL (25 mg Compound A) and 2.89 (±0.48 SD) log10 IU/mL (75 mg Compound A) from baseline was observed after 28 days. Three patients dosed with 75 mg QD achieved HBV DNA below the level of quantification of the HBV DNA assay while none in the 25 mg Compound A group achieved this. A more pronounced and consistent decline in HBV DNA was observed across patients in the 75 mg group compared with the 25 mg group.

[3] = Pharmacokinetics of single ascending doses in healthy Japanese volunteers; type: in vivo, human; settings: for Mean CL/F (SD) / Cmax / Vd/F / half-life / Tmax: fasted (n = 6); for Cmax / Vd/F / half-life / Tmax: human, plasma, oral; for Cmax: read-out: Mean Cmax (SD); for Vd/F: read-out: Mean Vd/F (SD); for half-life: read-out: Mean t1/2 term (SD) (converted); for Tmax: read-out: Median tmax
Description: A double-blind, placebo-controlled study was done to assess the safety, tolerability, and pharmacokinetics (PK) of Compound A. Thirty-two healthy adult Japanese volunteers were randomized into four cohorts. The volunteers were randomized 3:1 to receive a single dose of Compound A or placebo in a fasted state (see FIG. 4). The safety, tolerability and PK plasma profiles of Compound A were assessed after each dose. Full plasma PK profiles were determined up to 28 days after each single dose of Compound A. Urinary elimination was assessed in Cohort C (see FIG. 4) for 7 day.
The PKs were dose-dependent in all four treatment cohorts. […] The inter-subject variability, expressed as % CV, was low to moderate and similar across dose levels.

Mean CL/F (SD) ([3]; 25 mg single dose): 1.03 (0.33) L/h
Mean CL/F (SD) ([3]; 160 mg single dose): 0.929 (0.24) L/h
Mean CL/F (SD) ([3]; 300 mg single dose): 0.852 (0.17) L/h
Mean CL/F (SD) ([3]; 500 mg single dose): 0.919 (0.23) L/h
dose dependence of PKs ([3]; all four treatment cohorts): dose-dependent
Cmax ([3]; 25 mg single dose): 375 ng/mL
Vd/F ([3]; 25 mg single dose): 132 L
half-life ([3]; 25 mg single dose): 106 h
Tmax ([3]; 25 mg single dose): 1.75 h
Cmax ([3]; 160 mg single dose): 296 ng/mL
Vd/F ([3]; 160 mg single dose): 126 L
half-life ([3]; 160 mg single dose): 100 h
Tmax ([3]; 160 mg single dose): 3 h
Cmax ([3]; 300 mg single dose): 308 ng/mL
Vd/F ([3]; 300 mg single dose): 1140 L
half-life ([3]; 300 mg single dose): 116 h
Tmax ([3]; 300 mg single dose): 3 h
Cmax ([3]; 500 mg single dose): 328 ng/mL
Vd/F ([3]; 500 mg single dose): 119 L
half-life ([3]; 500 mg single dose): 95.6 h
Tmax ([3]; 500 mg single dose): 1.75 h
administered dose excreted via the kidneys ([3]; single dose 300 mg, Cohort C): 18%
unchanged drug excreted in urine ([3]; single dose 300 mg, Cohort C, 7 day): 53.9 mg
SMILES: C[C@H](NS(=O)(=O)c1cc(C(=O)Nc2ccc(F)c(C#N)c2)n(C)c1)C(F)(F)F [Compound A]
tolerability [1]: well tolerated
Amylase Increased (most common AEs) ([2]; 25 mg (100 mg Day 1)): 2 (25)** n (%)
At least one AE (on-treatment, 28 days) ([2]; 25 mg (100 mg Day 1)): 5 n (%) and 5 (63) n (%)
Headache (most common AEs) ([2]; 25 mg (100 mg Day 1)): 2 (25) n (%)
Worst Grade 1 AEs ([2]; 25 mg (100 mg Day 1)): 3 (38) n (%)
Worst Grade 2 AEs ([2]; 25 mg (100 mg Day 1)): 1 (13) n (%)
Worst Grade 3 AEs ([2]; 25 mg (100 mg Day 1)): 1 (13) n (%)
ECG changes and vital sign abnormalities ([2]; 25 mg and 75 mg, 28 days): no patients showed clinically significant ECG changes or persistent/worsening vital sign abnormalities
serious AEs, discontinuations, dose-limiting toxicities ([2]; 25 mg and 75 mg, 28 days): no serious adverse events (SAES) or adverse events (AEs) of clinical concern and no treatment discontinuations; also recorded: no serious AEs, no discontinuations due to AEs, and no dose-limiting toxicities
treatment-emergent Grade 3 or 4 laboratory abnormalities ([2]; 25 mg and 75 mg, 28 days): No treatment-emergent Grade 3 or 4 laboratory abnormalities were reported, with the exception of the Grade 3 amylase increase
Amylase Increased (most common AEs) ([2]; 75 mg): 0 n (%)
At least one AE (on-treatment, 28 days) ([2]; 75 mg): 4 n (%) and 4 (50) n (%)
Headache (most common AEs) ([2]; 75 mg): 0 n (%)
Worst Grade 1 AEs ([2]; 75 mg): 2 (25) n (%)
Worst Grade 2 AEs ([2]; 75 mg): 1 (13) n (%)
Worst Grade 3 AEs ([2]; 75 mg): 0 (0)* n (%)
patients who experienced at least one AE during treatment ([2]; both Compound A arms pooled (9/16)): 56%
HBV DNA Day 29 Mean Change from Baseline (HBV DNA; 25 mg QD): −2.16 log10 IU/mL
mean reduction in plasma HBV DNA levels from baseline (HBV DNA; 25 mg): 2.16 (±0.49 SD) log10 IU/mL and 2.16 (±0.49) log10 IU/mL
HBV DNA Day 29 Mean Change from Baseline (HBV DNA; 75 mg QD): −2.89 log10 IU/mL
mean reduction in plasma HBV DNA levels from baseline (HBV DNA; 75 mg): 2.89 (±0.48 SD) log10 IU/mL and 2.89 (±0.48) log10 IU/mL
HBV RNA Day 29 Mean Change from Baseline (HBV RNA; 25 mg QD): −2.30 log10 cp/mL
HBV RNA Day 29 Not detected (number of patients) (HBV RNA; 25 mg QD): 3
HBV RNA Day 29 Mean Change from Baseline (HBV RNA; 75 mg QD): −1.85 log10 cp/mL
HBV RNA Day 29 Not detected (number of patients) (HBV RNA; 75 mg QD): 6
